As a reminder, the inhibition is the drop in the measured response relative to a control, in per cent.

The record followed here is article PMC8621276, “Artemisinin Binds and Inhibits the Activity of Plasmodium falciparum Ddi1, a Retroviral Aspartyl Protease” (Pathogens, 2021).

What all share (format): biochemical
Test [1] deals with T1, PfDdi1 (Plasmodium falciparum, UniProt Q8IM03).
T1 construct: gene PF3D7_1409300; full length (382 aa), His-tagged (pET-28b NcoI/XhoI), E. coli Rosetta (DE3), Ni-NTA; ~44 kDa plus processed ~34 kDa fragment
T1 sequence (Q8IM03 1-382): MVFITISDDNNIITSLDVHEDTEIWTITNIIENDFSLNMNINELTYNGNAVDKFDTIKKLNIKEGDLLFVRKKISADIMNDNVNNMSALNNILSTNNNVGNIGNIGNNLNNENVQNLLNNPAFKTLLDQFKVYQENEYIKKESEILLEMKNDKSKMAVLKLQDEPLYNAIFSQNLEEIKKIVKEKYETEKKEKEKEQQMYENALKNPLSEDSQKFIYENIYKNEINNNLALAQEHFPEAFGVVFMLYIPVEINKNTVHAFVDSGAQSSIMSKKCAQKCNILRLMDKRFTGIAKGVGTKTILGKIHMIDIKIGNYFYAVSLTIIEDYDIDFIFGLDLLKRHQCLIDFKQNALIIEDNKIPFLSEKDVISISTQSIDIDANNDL
In words: inhibition of FRET peptide cleavage.

The target of test [2] is T1, PfDdi1. In words: inhibition of FRET peptide, AMC peptide and K48 polyubiquitin cleavage. To be noted: 10 min preincubation, sodium acetate pH 5.0, 37 °C, 2.0 μM enzyme.
Test [3] has as its target T1, PfDdi1. In words: inhibition of fluorogenic peptide cleavage.

`C[C@@H]1CC[C@H]2[C@@H](C)C(=O)O[C@@H]3O[C@@]4(C)CC[C@@H]1[C@]32OO4` [ART, artemisinin]: the inhibition at 1 µM in test [1] was 71.4%.
For the compound `C[C@@H]1CC[C@H]2[C@@H](C)C(O)O[C@@H]3O[C@@]4(C)CC[C@@H]1[C@]32OO4` (stereo partly drawn) [DHA, Dihydroartemisinin], the “% inhibition at 1 μM” value in test [2] is “artemisinin and its derivative, DHA, significantly inhibited the ability of PfDdi1 to degrade the polyubiquitinated”.
With `Cc1cccc(C)c1OCC(=O)N[C@@H](Cc1ccccc1)[C@@H](O)C[C@H](Cc1ccccc1)NC(=O)[C@H](C(C)C)N1CCCNC1=O` [LPV, Lopinavir], in test [3], the inhibition at 50 µM is ~23.5%.
